The results in this text go back to patent US7235548B2, “Compounds and their use as positive AMPA receptor modulators” (NeuroSearch A/S, priority 1998, dated 2007).

One series relates to AMPA receptors. In words: AMPA evoked single neuron spike activity in rat hippocampus (iontophoretic application of AMPA), in vivo. Conditions: 10 mg kg^−1 i.v., rat hippocampus. The source says: Evaluation of the in vivo effects of positive AMPA modulators (PAMs) on the AMPA evoked spike activity in rat hippocampus. Hippocampal single neuron spike activity is strongly influenced by excitatory input, and iontophoretic application of AMPA induces spike activity in vivo in a dose-dependent manner ([…] et al. 1998). […] PAMs potentate AMPA receptor activation in vitro, and if this mechanism also operates in vivo, the i.v. injection of an PAM should enhance AMPA evoked spike activity. Thus, the aim of this study was to test the in vivo effect of a group of in vitro active PAMs. This have been done by studying their ability to enhances AMPA evoked spike activity after i.v. administration. Experiments were performed on male Wistar rats (M & B, Denmark) weighing 280-380 g, housed in two per cage with free access to food and water. […] Additional anaesthetic was given i.v. if the rat responded to a pinch of the back foot. The trachea was cannulated and the rats were placed in a stereotaxic frame and ventilated by a rodent ventilator (Ugo Basile, Comerio-Varese, Italy). Core body temperature was maintained at 37.5° C. by a DC heating pad. The left and dorsal part of the parietal bone was removed by craniotomy and the dura was withdrawn exposing the pia mater and underlying brain, covered with 0.9% NaCl. AMPA (Sigma, USA) was dissolved at 10 mM in 0.2 M NaCl. NMDA (Sigma, USA) was dissolved at 100 mM in 100 mM NaCl. Both solutions were adjusted to pH 7.5-8.0 with NaOH. COMPOUND 61 was dissolved in 200 mM CH3SO3^- Na^+ at a contration of 10 mM for iontophoretic application ([…]) and in isotonic glucose (278 mM) for i.v. administration. Cyclothiazide, COMPOUND 63, COMPOUND 56, COMPOUND 115 and COMPOUND 114 were all dissolved at in 5% chremophore solution at a concentration of 5 mg ml^-1. Evoked neuronal spike activity was analyzed on-line by a computer, saving single spikes and time of event. Neuronal spike activity (number of action potentials s^-1) was monitored on a pulse rate histogram together with indicators for AMPA, COMPOUND 61 and vehicle application. Extracellular recordings of single hippocampal neuron spikes were made with five-barrel glass microelectrodes (5B120F-6, World Precision Instruments Inc., Sarasota, Fla., USA) with a tip diameter of 10-12 μm. The individual barrels were filled with 5 M NaCl (recording), 400 mM NaCl (current balancing), 10 mM COMPOUND 61 in 200 mM CH3SO3^- Na^+ (pH 4.7), 200 mM CH3SO3^- Na^+ (pH 4.7, Vehicle), and the last barrel was filled with the AMPA. Experiments were performed on hippocampal neurons (A=5.5-6.5 mm, L=1.5-2.0 mm, H=2.0-3.0 mm, according to Paxinos & Watson, 1986). Neuronal spike activity was evoked by iontophoretic application of AMPA for periods of 10 to 15 s with 1.5 min intervals. Single neuron spike activity was amplified 5000 times with a bandwidth of 0.3 and 3 kHz (CyberAmp 320 with a Al 402 x50 smartprobe, Axon Instruments, California, USA). On-line and off-line analyses were performed by the Spike2 program with a 1401 plus interface (Cambridge Electronic Design Limited, England). The computer program also recorded mean arterial blood pressure and monitored and controlled iontophoretic application. AMPA was ejected into hippocampus in regular cycles of 100-105 s. […] Recording of neuronal spike activity was continued for at least 45 min after intravenous injection. The PAM reactivity was tested by microiontophoretic application of COMPOUND 61 (20 nA, FIG.).
For the compound `NS(=O)(=O)c1cc2c(cc1Cl)NC(C1CC3C=CC1C3)NS2(=O)=O` (centres unmarked) [cyclothiazide, reference compound], the “AMPA evoked spike activity” value is on record as “did not enhance”.

The target in the next series is ionotropic quisqualate (AMPA) receptors. In words: In vitro inhibition of 3H-AMPA binding. The conditions noted are these: 5 nM 3H-AMPA, rat cerebral cortex membranes, 30 min at 2° C.; read-out: IC50 (concentration of the test substance which inhibits the specific binding of 3H-AMPA by 50%). From the text: L-glutamate (GLU) is the major excitatory neurotransmitter in the mammalian central nervous system. From electrophysiological- and binding studies, there appear to be at least three subtypes of GLU receptors, tentatively named N-methyl-D-aspartate (NMDA)-, quisqualate- and kainate receptors. GLU receptor subtypes sensitive to quisqualate and kainate as a group are often referred to as non-NMDA receptors. Receptor binding studies using the labelled agonists ^3H-AMPA (α-amino-3-hydroxy-5-methyl-4-isoxazolepropionic acid) (for quisqualate receptors) and ^3H-kainate (for kainate receptors) have shown different antagonist selectivities and regional distribution. AMPA has been known for several years to be a potent and selective agonist at the traditionally named quisqualate receptors. Activation of quisqualate receptors by AMPA is associated with Na^+ influx and K^+ efflux leading to depolarization.
The non-NMDA receptors have recently been reclassified to include the quisqualate activated metabotropic receptor type, linked to the inositol triphosphate and diacylglycerate metabolism. […] Selective activation of the metabotropic type has been claimed for trans-ACPD. Recently, the potent and competitive non-NMDA receptor antagonists CNQX and NBQX have been described, and CNQX have been reported not to block the effect of quisqualate at the metabotropic receptor subtype. ^3H-AMPA is a selective radioligand for labelling the ionotropic quisqualate (AMPA) receptors.
Preparations are performed at 0–4° C. unless otherwise indicated. Cerebral cortex from male Wistar rats (150–200 g) is homogenized for 5–10 sec in 20 ml Tris-HCl (30 mM, pH 7.4) using an Ultra-Turrax homogenizer. The suspension is centrifuged at 27,000×g for 15 min and the pellet is washed three times with buffer (centrifuged at 27,000×g for 10 min). The washed pellet is homogenized in 20 ml of buffer and incubated on a water bath (37° C.) for 30 min to remove endogenous glutamate and then centrifuged for 10 min at 27,000×g. The pellet is then homogenized in buffer and centrifuged at for 10 min at 27,000×g. The final pellet is resuspended in 30 ml buffer and the preparation is frozen and stored at −20° C.
The membrane preparation is thawed and centrifuged at 2° C. for 10 min at 27,000×g for 10 min. The pellet is washed twice with 20 ml 30 mM Tris-HCl containing 2.5 mM CaCl2, pH 7.4 using an Ultra-Turrax homogenizer and centrifuged for 10 min at 27,000×g. The final pellet is resuspended in 30 mM Tris-HCl containing 2.5 mM CaCl2 and 100 mM KSCN, pH 7.4 (100 ml per g of original tissue) and used for binding assays. Aliquots of 0.5 (0.2) ml are added to 25 (20) μl of test solution and 25(20) μl of ^3H-AMPA (5 nM, final concentration), mixed and incubated for 30 min at 2° C. Non-specific binding is determined using L-glutamate (0.6 mM, final concentration). After incubation the 550 μl samples are added 5 ml of ice-cold buffer and poured directly onto Whatman GF/C glass fibre filters under suction and immediately washed with 5 ml of ice-cold buffer. The 240 μl samples are filtered over glass fibre filter using a Skatron cell harvrester. The filters are washed with 3 ml ice-cold buffer. The amount of radioactivity on the filters is determined by conventional liquid scintillation counting. Specific binding is total binding minus non-specific binding.
The test value will be given as the IC50 (the concentration (μM) of the test substance which inhibits the specific binding of ^3H-AMPA by 50%)
For `CCN(CC)S(=O)(=O)c1ccc2c(c1)S(=O)(=O)NC(C1CCCCC1)N2` (centres unmarked) [Compound 48, 3-Cyclohexyl-7-(N,N-diethylamino)sulfonyl-1,2,3,4-tetrahydro-1,2,4-benzothiadiazine-1,1-dioxide], the IC50 came to 4.4 µM.
Regarding `NC(=O)c1ccc2c(c1)S(=O)(=O)NC(C1CCCCC1)N2` (centres unmarked) [Compound 15, 3-Cyclohexyl-7-carbamoyl-1,2,3,4-tetrahydro-1,2,4-benzothiadiazine-1,1-dioxide], the IC50 came out at 39 µM.
On the same count and under the same terms, the value for `NS(=O)(=O)c1ccc2c(c1)S(=O)(=O)NC(C1CCCCC1)N2` (centres unmarked) [Compound 44, 3-Cyclohexyl-7-sulfamoyl-1,2,3,4-tetrahydro-1,2,4-benzothiadiazine-1,1-dioxide] was 3.5 µM; that for `CS(=O)(=O)N1CCN(S(=O)(=O)c2ccc3c(c2)S(=O)(=O)NC(C2CCCCC2)N3)CC1` (centres unmarked) [Compound 62, 3-Cyclohexyl-7-(4′-methylsulfonylpiperazino)sulfonyl-1,2,3,4-tetrahydro-1,2,4-benzothiadiazine-1,1-dioxide] was 6 µM.

Tested on in another series: not given
Assay: not given
Settings: not given
`O=S1(=O)NC(C2CCCCC2)Nc2ccc(-c3cccc(O)c3)cc21` (centres unmarked) [Compound 27, 3-Cyclohexyl-7-(3′-hydroxyphenyl)-1,2,3,4-tetrahydro-1,2,4-benzothiadiazine-1,1-dioxide] came in with a melting point of 238 to 246 °C.
On the same count and under the same terms, the value for `CC1NC(=O)c2ccccc2O1` (centres unmarked) [Compound 3, 2-Methyl-3,4-dihydro-1,3-benzoxazine-4-one] was 124 to 126 °C; that for `CS(=O)(=O)Nc1ccc2c(c1)S(=O)(=O)NC(C1CCCCC1)N2` (centres unmarked) [Compound 39, 3-Cyclohexyl-7-methylsulfonylamino-1,2,3,4-tetrahydro-1,2,4-benzothiadiazine-1,1-dioxide] was 255 to 258 °C.
`CN(C)S(=O)(=O)c1ccccc1-c1ccc2c(c1)S(=O)(=O)NC(C1CCCCC1)N2` (centres unmarked) [Compound 24, 3-Cyclohexyl-7-(2′-(N,N-dimethylsulfamoyl)phenyl)-1,2,3,4-tetrahydro-1,2,4-benzothiadiazine-1,1-dioxide] displayed a melting point of 290 to 300 °C.
`NS(=O)(=O)c1cc(Br)c2c(c1)S(=O)(=O)NC(C1CCCCC1)N2` (centres unmarked) [Compound 101, 5-Bromo-3-cyclohexyl-7-sulfamoyl-1,2,3,4-tetrahydro-1,2,4-benzothiadiazine-1,1-dioxide]: the melting point was in the range of 254 to 258 °C.
As for `CN1C(C2CCCCC2)Nc2ccc(S(=O)(=O)N3CCOCC3)cc2S1(=O)=O` (centres unmarked) [Compound 85, 3-Cyclohexyl-2-methyl-7-morpholinosulfonyl-1,2,3,4-tetrahydro-1,2,4-benzothiadiazine-1,1-dioxide], the melting point lay within 243 to 245 °C.
Still for that read-out and setting: the value for `COc1cc(C(F)(F)F)ccc1-c1ccc2c(c1)S(=O)(=O)NC(C1CCCCC1)N2` (centres unmarked) [Compound 22, 3-Cyclohexyl-7-(2′-methoxy-4′-trifluoromethylphenyl)-1,2,3,4-tetrahydro-1,2,4-benzothiadiazine-1,1-dioxide] was 255 to 257 °C; that for `O=S1(=O)NC(C2CCCCC2)Nc2cc3c(cc21)OCCO3` (centres unmarked) [Compound 118, 3-cyclohexyl-6,7-ethylenedioxy-1,2,3,4-tetrahydro-1,2,4-benzothiadiazine-1,1-dioxide] was 196 to 200 °C; that for `O=[N+]([O-])c1ccc2c(c1)S(=O)(=O)NC(C1CCCCC1)N2` (centres unmarked) [Compound 40, 3-Cyclohexyl-7-nitro-1,2,3,4-tetrahydro-1,2,4-benzothiadiazine-1,1-dioxide] was 209 to 211 °C.
In turn, `O=S1(=O)NC(C2CCCCC2)Nc2ccc3c(c21)OCCO3` (centres unmarked) [Compound 122, 3-Cyclohexyl-7,8-ethylenedioxy-1,2,3,4-tetrahydro-1,2,4-benzothiadiazine-1,1-dioxide] gave a melting point of 268 to 270 °C.
Same read-out and setting: the value for `CN1c2ccc(S(=O)(=O)N3CCOCC3)cc2S(=O)(=O)NC1C1CCCCC1` (centres unmarked) [Compound 86, 3-Cyclohexyl-4-methyl-7-morpholinosulfonyl-1,2,3,4-tetrahydro-1,2,4-benzothiadiazine-1,1-dioxide] was 207 to 210 °C; that for `O=C1NC(c2ccccc2)Oc2ccccc21` (centres unmarked) [Compound 4, 2-Phenyl-3,4-dihydro-1,3-benzoxazine-4-one] was 157 to 160 °C; that for `O=S1(=O)NC(C2CCCC2)Nc2ccc(S(=O)(=O)N3CCCCC3)cc21` (centres unmarked) [Compound 55, 3-Cyclopentyl-7-piperidinosulfonyl-1,2,3,4-tetrahydro-1,2,4-benzothiadiazine-1,1-dioxide] was 258 to 260 °C.
On the same count and under the same terms, the value for `CC(=O)Nc1ccccc1-c1ccc2c(c1)S(=O)(=O)NC(C1CCCCC1)N2` (centres unmarked) [Compound 19, 3-Cyclohexyl-7-(2′-acetamidophenyl)-1,2,3,4-tetrahydro-1,2,4-benzothiadiazine-1,1-dioxide] was 245 to 249 °C.
On the same count and under the same terms, the value for `CCC1(C)NC(=O)c2ccccc2O1` (centres unmarked) [Compound 8, 2-Ethyl-2-methyl-3,4-dihydro-1,3-benzoxazine-4-one] was 76 to 78 °C.
